ChEMBL document CHEMBL3044854, “Synthesis and biological evaluation of diamide derivatives of (S)-BINOL and biphenyl as potential anti-inflammatory/anti-arthritic agents” (2013)

How the values were obtained:
[1] = Anti-inflammatory activity in Homo sapiens (human) RBCs assessed as prevention of hemolysis at 100 ug/mL after 30 min by UV-Vis spectrophotometric analysis relative to control; format: functional, Erythrocyte
[2] = In vitro antiarthritic activity assessed as inhibition of bovine serum albumin denaturation at 200 ug/mL after 20 min by UV-Visible spectrophotometric analysis relative to control; format: functional
[3] = Anti-inflammatory activity in Homo sapiens (human) RBCs assessed as prevention of hemolysis at 50 ug/mL after 30 min by UV-Vis spectrophotometric analysis relative to control; format: functional, Erythrocyte
[4] = Anti-inflammatory activity in Homo sapiens (human) RBCs assessed as prevention of hemolysis at 10 ug/mL after 30 min by UV-Vis spectrophotometric analysis relative to control; format: functional, Erythrocyte
[5] = In vitro antiarthritic activity assessed as inhibition of bovine serum albumin denaturation at 50 ug/mL after 20 min by UV-Visible spectrophotometric analysis relative to control; format: functional
[6] = In vitro antiarthritic activity assessed as inhibition of bovine serum albumin denaturation at 100 ug/mL after 20 min by UV-Visible spectrophotometric analysis relative to control; format: functional
Erythrocyte = assay: Anti-inflammatory activity in Homo sapiens (human) RBCs assessed as prevention of hemolysis after 30 min by UV-Vis spectrophotometric analysis; format: functional, cell-based
[7] = In vitro antiarthritic activity assessed as inhibition of bovine serum albumin denaturation at 800 ug/mL after 20 min by UV-Visible spectrophotometric analysis relative to control; format: functional
[8] = Anti-inflammatory activity in Homo sapiens (human) RBCs assessed as prevention of hemolysis at 200 ug/mL after 30 min by UV-Vis spectrophotometric analysis relative to control; format: functional, Erythrocyte
[9] = In vitro antiarthritic activity assessed as inhibition of bovine serum albumin denaturation after 20 min by UV-Visible spectrophotometric analysis; format: functional
[10] = In vitro antiarthritic activity assessed as inhibition of bovine serum albumin denaturation at 400 ug/mL after 20 min by UV-Visible spectrophotometric analysis relative to control; format: functional

## O=C(NCCSCCOc1ccc2ccccc2c1-c1c(OCCSCCNC(=O)c2ccccc2)ccc2ccccc12)c1ccccc1
[1]
  Activity: 63.6%
[2]
  inhibition: 52.3%
[3]
  Activity: 51.4%
[4]
  Activity: 34.5%
[5]
  inhibition: 19.5%
[6]
  inhibition: 30.3%
Erythrocyte
  inhibition: Dose-dependent effect
[7]
  inhibition: 82.7%
[8]
  Activity: 79.4%
[9]
  inhibition: Dose-dependent effect
[10]
  inhibition: 65.8%

## O=C(O)Cc1ccccc1Nc1c(Cl)cccc1Cl
[2]
  inhibition: 15.2%
[5]
  inhibition: 5.6%
[6]
  inhibition: 10.9%
[7]
  inhibition: 76.7%
[10]
  inhibition: 21.6%

## C[C@]12C=CC(=O)C=C1CC[C@@H]1[C@@H]2[C@@H](O)C[C@@]2(C)[C@H]1CC[C@]2(O)C(=O)CO [PREDNISOLONE]
[1]
  Activity: 84.8%
[3]
  Activity: 57.9%
[4]
  Activity: 46%
[8]
  Activity: 91%

## O=C(Cc1cccs1)NCCSCCOc1ccccc1-c1ccccc1OCCSCCNC(=O)Cc1cccs1
[1]
  Activity: 67.2%
[2]
  inhibition: 41.1%
[3]
  Activity: 58.6%
[4]
  Activity: 47.3%
[5]
  inhibition: 28.3%
[6]
  inhibition: 34.9%
Erythrocyte
  inhibition: Dose-dependent effect
[7]
  inhibition: 84.8%
[8]
  Activity: 83.3%
[9]
  inhibition: Dose-dependent effect
[10]
  inhibition: 69.6%

## O=C(Cn1cnnn1)NCCSCCOc1ccc2ccccc2c1-c1c(OCCSCCNC(=O)Cn2cnnn2)ccc2ccccc12
[1]
  Activity: 82.5%
[2]
  inhibition: 67.1%
[3]
  Activity: 69.7%
[4]
  Activity: 61.9%
[5]
  inhibition: 19.6%
[6]
  inhibition: 39.6%
Erythrocyte
  inhibition: Dose-dependent effect
[7]
  inhibition: 94.2%
[8]
  Activity: 91.6%
[9]
  inhibition: Dose-dependent effect
[10]
  inhibition: 74.1%

## O=C(NCCSCCOc1ccc2ccccc2c1-c1c(OCCSCCNC(=O)c2ccco2)ccc2ccccc12)c1ccco1
[1]
  Activity: 88.9%
[2]
  inhibition: 71.5%
[3]
  Activity: 65.5%
[4]
  Activity: 56.5%
[5]
  inhibition: 29.5%
[6]
  inhibition: 50.8%
Erythrocyte
  inhibition: Dose-dependent effect
[7]
  inhibition: 98.7%
[8]
  Activity: 96.2%
[9]
  inhibition: Dose-dependent effect
[10]
  inhibition: 87.8%

## O=C(NCCSCCOc1ccccc1-c1ccccc1OCCSCCNC(=O)c1ccco1)c1ccco1
[1]
  Activity: 84.7%
[2]
  inhibition: 68.8%
[3]
  Activity: 62.9%
[4]
  Activity: 55.2%
[5]
  inhibition: 25.7%
[6]
  inhibition: 46.6%
Erythrocyte
  inhibition: Dose-dependent effect
[7]
  inhibition: 97.2%
[8]
  Activity: 94.1%
[9]
  inhibition: Dose-dependent effect
[10]
  inhibition: 83.1%

## O=C(Cc1cccs1)NCCSCCOc1ccc2ccccc2c1-c1c(OCCSCCNC(=O)Cc2cccs2)ccc2ccccc12
[1]
  Activity: 72.8%
[2]
  inhibition: 59.1%
[3]
  Activity: 61.7%
[4]
  Activity: 50.2%
[5]
  inhibition: 23.6%
[6]
  inhibition: 42.2%
Erythrocyte
  inhibition: Dose-dependent effect
[7]
  inhibition: 87.4%
[8]
  Activity: 86%
[9]
  inhibition: Dose-dependent effect
[10]
  inhibition: 73.3%

## O=C(Cn1cnnn1)NCCSCCOc1ccccc1-c1ccccc1OCCSCCNC(=O)Cn1cnnn1
[1]
  Activity: 75.3%
[2]
  inhibition: 65.1%
[3]
  Activity: 63.3%
[4]
  Activity: 54%
[5]
  inhibition: 21.6%
[6]
  inhibition: 42.2%
Erythrocyte
  inhibition: Dose-dependent effect
[7]
  inhibition: 91.9%
[8]
  Activity: 89.4%
[9]
  inhibition: Dose-dependent effect
[10]
  inhibition: 76.3%

## O=C(NCCSCCOc1ccccc1-c1ccccc1OCCSCCNC(=O)c1ccccc1)c1ccccc1
[1]
  Activity: 60.7%
[2]
  inhibition: 53%
[3]
  Activity: 49%
[4]
  Activity: 35.7%
[5]
  inhibition: 15.8%
[6]
  inhibition: 38.2%
Erythrocyte
  inhibition: Dose-dependent effect
[7]
  inhibition: 81.8%
[8]
  Activity: 77.5%
[9]
  inhibition: Dose-dependent effect
[10]
  inhibition: 67.8%
